The source of these data is patent US12486274B2, “Substituted pyrazolo-pyrimidines and uses thereof” (Verge Analytics, Inc., priority 2020, dated 2025).

pIC50: −log10 of the molar value. Structures can show the parent of a compound that is named as a salt.

The target in this experiment is Full length human recombinant PIKFYVE (Homo sapiens (Human), UniProt Q9Y2I7). The experiment in a line: Inhibition of PIKfyve (microfluidic electrophoresis kinase assay). Format: biochemical. Conditions: 2 nM enzyme, PI3P/PS substrate, 3 h at room temperature, 12 concentrations. The gist of the method: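 GST-tagged full-length PIKfyve (baculovirus-expressed, 2 nM final) with fluorescent PI3P/PS substrate (1 μM PI3P) and […] in HEPES pH 7.5 with Mg2+/Mn2+, 1% DMSO, 3 h at room temperature; 12 concentrations. PI(3,5)P product and substrate separated by microfluidic electrophoresis; % inhibition from product/sum ratio.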
Full length human recombinant PIKFYVE, sequence (Q9Y2I7 whole entry): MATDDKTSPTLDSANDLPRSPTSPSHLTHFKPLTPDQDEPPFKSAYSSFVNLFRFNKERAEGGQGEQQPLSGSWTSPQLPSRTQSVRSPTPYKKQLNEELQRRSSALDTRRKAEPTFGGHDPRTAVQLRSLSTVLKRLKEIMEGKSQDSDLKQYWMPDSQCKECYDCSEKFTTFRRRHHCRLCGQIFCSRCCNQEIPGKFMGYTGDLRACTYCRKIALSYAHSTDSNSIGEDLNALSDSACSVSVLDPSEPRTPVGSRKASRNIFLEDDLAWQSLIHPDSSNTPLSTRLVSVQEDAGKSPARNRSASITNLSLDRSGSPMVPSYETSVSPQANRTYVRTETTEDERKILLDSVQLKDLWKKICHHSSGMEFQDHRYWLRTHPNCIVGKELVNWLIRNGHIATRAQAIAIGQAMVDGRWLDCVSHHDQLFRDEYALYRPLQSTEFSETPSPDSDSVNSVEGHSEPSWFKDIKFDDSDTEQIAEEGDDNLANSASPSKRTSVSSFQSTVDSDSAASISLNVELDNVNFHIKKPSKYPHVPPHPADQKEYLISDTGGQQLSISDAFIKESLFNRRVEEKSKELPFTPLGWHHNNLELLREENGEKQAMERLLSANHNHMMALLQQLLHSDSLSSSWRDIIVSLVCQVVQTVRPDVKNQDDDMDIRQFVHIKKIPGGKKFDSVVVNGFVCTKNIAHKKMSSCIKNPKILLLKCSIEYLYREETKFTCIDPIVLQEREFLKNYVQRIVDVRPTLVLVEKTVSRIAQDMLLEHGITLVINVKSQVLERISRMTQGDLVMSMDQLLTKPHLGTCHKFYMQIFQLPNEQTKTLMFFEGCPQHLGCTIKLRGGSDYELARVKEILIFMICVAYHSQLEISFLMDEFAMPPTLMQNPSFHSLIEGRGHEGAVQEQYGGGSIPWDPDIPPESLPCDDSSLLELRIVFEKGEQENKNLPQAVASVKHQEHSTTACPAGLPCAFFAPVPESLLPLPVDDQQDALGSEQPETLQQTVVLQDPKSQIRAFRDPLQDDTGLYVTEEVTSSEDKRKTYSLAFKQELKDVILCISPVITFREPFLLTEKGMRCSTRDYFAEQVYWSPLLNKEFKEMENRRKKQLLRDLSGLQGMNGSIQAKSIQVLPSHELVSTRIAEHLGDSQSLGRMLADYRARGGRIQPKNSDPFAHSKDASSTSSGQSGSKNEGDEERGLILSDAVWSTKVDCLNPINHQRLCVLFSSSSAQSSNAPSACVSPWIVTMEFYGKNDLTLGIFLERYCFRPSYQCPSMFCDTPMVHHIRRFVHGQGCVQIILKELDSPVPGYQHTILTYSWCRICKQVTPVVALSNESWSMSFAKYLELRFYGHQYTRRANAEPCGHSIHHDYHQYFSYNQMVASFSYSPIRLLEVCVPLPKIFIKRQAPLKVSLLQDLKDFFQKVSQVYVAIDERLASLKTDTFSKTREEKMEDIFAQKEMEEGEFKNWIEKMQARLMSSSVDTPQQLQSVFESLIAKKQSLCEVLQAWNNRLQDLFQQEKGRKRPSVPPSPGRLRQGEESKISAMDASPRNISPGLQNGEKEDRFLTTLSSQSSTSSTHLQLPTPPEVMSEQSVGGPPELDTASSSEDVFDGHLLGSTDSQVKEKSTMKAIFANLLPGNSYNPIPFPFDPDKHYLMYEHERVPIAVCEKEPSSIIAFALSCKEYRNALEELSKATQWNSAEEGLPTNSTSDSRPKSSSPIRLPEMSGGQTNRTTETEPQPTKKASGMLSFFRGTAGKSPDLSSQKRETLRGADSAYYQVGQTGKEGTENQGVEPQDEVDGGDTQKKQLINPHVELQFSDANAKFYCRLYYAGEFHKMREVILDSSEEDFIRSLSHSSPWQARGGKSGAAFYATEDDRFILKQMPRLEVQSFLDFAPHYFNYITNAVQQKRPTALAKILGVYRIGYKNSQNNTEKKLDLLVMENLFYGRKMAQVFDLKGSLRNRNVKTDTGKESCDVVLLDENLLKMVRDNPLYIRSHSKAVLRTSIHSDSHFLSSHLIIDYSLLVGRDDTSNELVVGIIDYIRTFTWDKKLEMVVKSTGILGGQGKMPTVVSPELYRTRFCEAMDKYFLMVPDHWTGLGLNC
As for `Cc1cccc(-c2ccn(-c3cc(N4CCOCC4)n4nc(C(=O)NCC5(CO)COC5)cc4n3)n2)c1` [Example 44, N-((3-(hydroxymethyl)oxetan-3-yl)methyl)-7-morpholino-5-(3-(m-tolyl)-1H-pyrazol-1-yl)pyrazolo[1,5-a]pyrimidine-2-carboxamide], the pIC50 was 7.10. The result for `C[C@@H](NC(=O)c1cc2nc(-n3ccc(-c4ccccc4)n3)cc(N3CCOCC3)n2n1)C1CC1` [Compound 74, N-[(1R)-1-cyclopropylethyl]-7-morpholino-5-(3-phenylpyrazol-1-yl)pyrazolo[1,5-a]pyrimidine-2-carboxamide] reads 6.45. The result for `Cc1cccc(-c2cnn(-c3cc(N4CCOCC4)n4nc(-c5cnc(N)nc5)cc4n3)c2)c1` [Compound 60, 5-[7-morpholino-5-[4-(m-tolyl)pyrazol-1-yl]pyrazolo[1,5-a]pyrimidin-2-yl]pyrimidin-2-amine] reads 5.21; that for `c1ccc(-c2ccn(-c3cc(N4CCOCC4)n4nc(-c5ncccn5)cc4n3)n2)cc1` [Compound 63, 4-[5-(3-phenylpyrazol-1-yl)-2-pyrimidin-2-yl-pyrazolo[1,5-a]pyrimidin-7-yl]morpholine], 6.16; that for `Cc1cccc(-c2ccn(-c3cc(N4CCOCC4)n4nc(C(=O)N5CC6(COC6)C5)cc4n3)n2)c1` [Example 45, (7-morpholino-5-(3-(m-tolyl)-1H-pyrazol-1-yl)pyrazolo[1,5-a]pyrimidin-2-yl) (2-oxa-6-azaspiro[3.3]heptan-6-yl)methanone], 6.98. Under `Cc1cccc(-c2ccn(-c3cc(N4CCOCC4)n4nc(-c5nccs5)cc4n3)n2)c1` [Compound 111, 4-[5-[3-(m-tolyl)pyrazol-1-yl]-2-thiazol-2-yl-pyrazolo[1,5-a]pyrimidin-7-yl]morpholine] stands 8.57. Turning to `Cc1cccc(-c2ccn(-c3cc(N4CCOCC4)n4nc(-c5cc(C)nn5CCN(C)C)cc4n3)n2)c1` [Compound 83, N,N-dimethyl-2-[3-methyl-5-[7-morpholino-5-[3-(m-tolyl)pyrazol-1-yl]pyrazolo[1,5-a]pyrimidin-2-yl]pyrazol-1-yl]ethanamine], the pIC50 is 7.65. Under `Cc1cccc(-c2cnn(-c3cc(N4CCOCC4)n4nc(C(=O)NC5CCN(C)CC5)cc4n3)c2)c1` [Compound 55, N-(1-methyl-4-piperidyl)-7-morpholino-5-[4-(m-tolyl)pyrazol-1-yl]pyrazolo[1,5-a]pyrimidine-2-carboxamide] stands 5.19; under `Cc1cccc(-c2ccn(-c3cc(N4CCOCC4)n4nc(-c5cc(C)n(CCN(C)C)n5)cc4n3)n2)n1` [Compound 94, N,N-dimethyl-2-[5-methyl-3-[5-[3-(6-methyl-2-pyridyl)pyrazol-1-yl]-7-morpholino-pyrazolo[1,5-a]pyrimidin-2-yl]pyrazol-1-yl]ethanamine], 5.36. `Cc1ccc(-c2cc(Nc3cc(N4CCOCC4)n4nc(-c5ccncc5)cc4n3)[nH]n2)cc1` [Example 1, 7-morpholino-2-(pyridin-4-yl)-N-(3-(p-tolyl)-1H-pyrazol-5-yl)pyrazolo[1,5-a]pyrimidin-5-amine, hydrogen chloride salt]: the pIC50 is 5.59. Regarding `Cc1cccc(-c2ccn(-c3cc(N4CCOCC4)n4nc(C(=O)N[C@H]5CCOC5)cc4n3)n2)c1` [Compound 50, 7-morpholino-5-[3-(m-tolyl)pyrazol-1-yl]-N-[(3S)-tetrahydrofuran-3-yl]pyrazolo[1,5-a]pyrimidine-2-carboxamide], the pIC50 is 7.74. The result for `Cc1cc(-c2ccn(-c3cc(N4CCOCC4)n4nc(-c5cc(C)n(CCN(C)C)n5)cc4n3)n2)ccn1` [Compound 96, N,N-dimethyl-2-[5-methyl-3-[5-[3-(2-methyl-4-pyridyl)pyrazol-1-yl]-7-morpholino-pyrazolo[1,5-a]pyrimidin-2-yl]pyrazol-1-yl]ethanamine] reads less than 5.00; that for `Cc1cccc(-c2ccn(-c3cc(N4CCOCC4)n4nc(-c5cc(C)no5)cc4n3)n2)c1` [Compound 110, 4-[2-(3-methylisoxazol-5-yl)-5-[3-(m-tolyl)pyrazol-1-yl]pyrazolo[1,5-a]pyrimidin-7-yl]morpholine], 8.66; that for `Cc1ccn(-c2cc(N3CCOCC3)n3nc(-c4ccncc4)cc3n2)n1` [Example 16, 4-[5-(3-methylpyrazol-1-yl)-2-(4-pyridyl)pyrazolo[1,5-a]pyrimidin-7-yl]morpholine], less than 5.00. Under `Nc1ncccc1-c1cc2nc(-n3ccc(-c4ccccc4)n3)cc(N3CCOCC3)n2n1` [Compound 70, 3-[7-morpholino-5-(3-phenylpyrazol-1-yl)pyrazolo[1,5-a]pyrimidin-2-yl]pyridin-2-amine] stands 6.42; under `Cc1cccc(-c2ccn(-c3cc(N4CCOCC4)n4nc(C(=O)N5CCOCC5)cc4n3)n2)c1` [Example 31, morpholino (7-morpholino-5-(3-(m-tolyl)-1H-pyrazol-1-yl)pyrazolo[1,5-a]pyrimidin-2-yl)methanone], 6.62. The result for `Cc1cccc(-c2ccn(-c3cc(N4CCOCC4)n4nc(-c5ccn(C)n5)cc4n3)n2)c1` [Compound 61, 4-[2-(1-methylpyrazol-3-yl)-5-[3-(m-tolyl)pyrazol-1-yl]pyrazolo[1,5-a]pyrimidin-7-yl]morpholine] reads 8.62; that for `Cc1cc(-c2cc3nc(-n4ccc(-c5ccccn5)n4)cc(N4CCOCC4)n3n2)nn1CCN(C)C` [Compound 92, N,N-dimethyl-2-[5-methyl-3-[7-morpholino-5-[3-(2-pyridyl)pyrazol-1-yl]pyrazolo[1,5-a]pyrimidin-2-yl]pyrazol-1-yl]ethanamine], 5.28; that for `Cc1cncc(-c2ccn(-c3cc(N4CCOCC4)n4nc(-c5cccnc5)cc4n3)n2)c1` [Compound 102, 4-[5-[3-(5-methyl-3-pyridyl)pyrazol-1-yl]-2-(3-pyridyl)pyrazolo[1,5-a]pyrimidin-7-yl]morpholine], less than 5.00. Regarding `c1ccc(-c2cnn(-c3cc(N4CCOCC4)n4nc(-c5ccccn5)cc4n3)c2)cc1` [Compound 78, 4-[5-(4-phenylpyrazol-1-yl)-2-(2-pyridyl)pyrazolo[1,5-a]pyrimidin-7-yl]morpholine], the pIC50 was 6.36.
